Test results reported in patent US10150737B2, “Compounds for controlling arthropods” (priority 2013, dated 2018).
Where two headings read alike, the source gives them in different places.

Columns and labels:
[1] = logP determination by HPLC on a reversed-phase column (C18); format: physicochemical; details: for log P: HPLC-MS; for logP^a): HPLC-MS method a)
Phaedon cochleariae = Phaedon cochleariae - spray test; format: in vivo; details: larvae on Chinese cabbage leaf discs, after 7 days
Procedure: Solvent: 78.0 parts by weight of acetone and 1.5 parts by weight of dimethylformamide
Emulsifier: alkylaryl polyglycol ether
To produce an appropriate active ingredient formulation, 1 part by weight of active ingredient is dissolved using the specified parts by weight of solvent and made up with water containing an emulsifier concentration of 1000 ppm until the desired concentration is attained. To produce further test concentrations, the preparation is diluted with emulsifier-containing water.
Discs of Chinese cabbage leaves (Brassica pekinensis) are sprayed with an active ingredient formulation of the desired concentration and, after drying, populated with larvae of the mustard beetle (Phaedon cochleariae).
After 7 days, efficacy in % is determined. 100% means that all the beetle larvae have been killed; 0% means that no beetle larvae have been killed.

[2] = reversed-phase column (C18), Table I-T3
[3] = HPLC, C18 reversed phase, acetonitrile/water with formic acid, EEC Directive 79/831 Annex V.A8

Row | Structure (SMILES) | log P [1, 2] | also measured
1 | N#CC1(NC(=O)c2cc(-c3cnn(-c4c(Cl)cc(C(F)(C(F)(F)F)C(F)(F)F)cc4OC(F)F)c3)cnc2Cl)CC1 [I-T3-218] | 3.7 | 
2 | NC(=O)C1(NC(=O)c2cc(-c3cnn(-c4c(F)c(F)c(C(F)(F)F)c(F)c4F)c3)ccc2Cl)CC1 [I-T3-194] | 2.8 | 
3 | CSc1cc(C(F)(C(F)(F)F)C(F)(F)F)cnc1-n1cc(-c2ccc(Cl)c(C(=O)NC3(C#N)CC3)c2)cn1 [I-T3-166] | 4.3 | 
4 | CN(C(=O)c1cc(-c2cnn(-c3c(I)cc(C(F)(C(F)(F)F)C(F)(F)F)cc3C(F)(F)F)c2)ccc1Cl)C1CC1 [I-T3-229] | 5.1 | 
5 | CN(C(=O)c1cc(-c2cnn(-c3ccc(C(F)(C(F)(F)F)C(F)(F)F)cc3C(F)(F)F)c2)ccc1Cl)C1CC1 [I-T3-134] | 4.9 | logP [1, 3]: 4.88; logP^a) ([1]; reversed-phase column (C18)): 4.9
6 | CN(C(=O)c1cc(-c2cnn(-c3c(I)cc(C(F)(C(F)(F)F)C(F)(F)F)cc3OC(F)(F)F)c2)ccc1Cl)C1CC1 [I-T3-225] | 5.2 | 
7 | O=C(NC1CC1)c1cc(-c2cnn(-c3c(Cl)cc(C(F)(C(F)(F)F)C(F)(F)F)cc3OC(F)F)c2)ccc1Cl [I-T3-214] | 4.3 | 
8 | N#CC1(NC(=O)c2cc(-c3cnn(-c4ncc(C(F)(C(F)(F)F)C(F)(F)F)cc4SCC(F)(F)F)c3)ccc2Cl)CC1 [I-T3-171] | 4.5 | efficacy (Phaedon cochleariae; application rate 100 g/ha): 100%
9 | CN(C(=O)c1cc(-c2cnn(-c3c(Cl)cc(C(F)(C(F)(F)F)C(F)(F)F)cc3OC(F)F)c2)ccc1Cl)C1CC1 [I-T3-216] | 4.7 | 
10 | CCS(=O)(=O)c1cc(C(F)(C(F)(F)F)C(F)(F)F)cc(C)c1-n1cc(-c2ccc(Cl)c(C(=O)NC3(C#N)CC3)c2)cn1 [I-T3-209] | 3.8 | 
11 | CN(C(=O)c1cc(-c2cnn(-c3c(Cl)cc(C(F)(C(F)(F)F)C(F)(F)F)cc3OC(F)(F)F)c2)ccc1Cl)C1CC1 [I-T3-219] | 5.1 | 
12 | Cc1cc(C(F)(C(F)(F)F)C(F)(F)F)cc(C)c1-n1cc(-c2cc(C(=O)NC3CC3)c(Cl)cc2F)cn1 [I-T3-14] |  | logP^a) [1]: 4.5; logP^a) [1, 2]: 4.5
13 | N#CC1(NC(=O)c2cc(-c3cnn(-c4c(I)cc(C(F)(C(F)(F)F)C(F)(F)F)cc4C(F)(F)F)c3)ccc2Cl)CC1 [I-T3-228] | 4.4 | 
14 | O=C(NC1CC1)c1cc(-c2cnn(-c3c(I)cc(C(F)(C(F)(F)F)C(F)(F)F)cc3OC(F)(F)F)c2)ccc1Cl [I-T3-224] | 4.7 | 
15 | CCSc1cc(C(F)(C(F)(F)F)C(F)(F)F)cc(C)c1-n1cc(-c2ccc(Cl)c(C(=O)NC3(C#N)CC3)c2)cn1 [I-T3-202] | 4.5 | 
16 | CCSc1cc(C(F)(C(F)(F)F)C(F)(F)F)cc(C)c1-n1cc(-c2ccc(Cl)c(C(=O)NC3CC3)c2)cn1 [I-T3-203] | 4.6 | 
17 | O=C(NC1CC1)c1cc(-c2cnn(-c3c(Cl)cc(C(F)(C(F)(F)F)C(F)(F)F)cc3I)c2)ccc1Cl [I-T3-213] | 4.4 | 
18 | N#CC1(NC(=O)c2cc(-c3cnn(-c4c(Cl)cc(C(F)(C(F)(F)F)C(F)(F)F)cc4I)c3)ccc2Cl)CC1 [I-T3-212] | 4.3 | 
19 | CN(C(=O)c1cc(-c2cnn(-c3c(Cl)cc(C(F)(C(F)(F)F)C(F)(F)F)cc3OC(F)F)c2)cnc1Cl)C1CC1 [I-T3-217] | 4.2 | 
20 | O=C(NC1CC1)c1cc(-c2cnn(-c3c(Cl)cc(C(F)(C(F)(F)F)C(F)(F)F)cc3C(F)F)c2)ccc1Cl [I-T3-193] | 4.4 | 

Row | Structure (SMILES) | log P [1, 2] | also measured
21 | CC[S+]([O-])c1cc(C(F)(C(F)(F)F)C(F)(F)F)cnc1-n1cc(-c2ccc(Cl)c(C(=O)NC3(C#N)CC3)c2)cn1 (centres unmarked) [I-T3-153] | 3.7 | logP^a) ([1]; reversed-phase column (C18)): 3.7; efficacy (Phaedon cochleariae; application rate 100 g/ha): 100%
22 | CC[S+]([O-])c1cc(C(F)(C(F)(F)F)C(F)(F)F)cc(C)c1-n1cc(-c2ccc(Cl)c(C(=O)NC3(C#N)CC3)c2)cn1 (centres unmarked) [I-T3-206] | 3.6 | 
23 | N#CC1(NC(=O)c2cc(-c3cnn(-c4c(I)cc(C(F)(C(F)(F)F)C(F)(F)F)cc4OC(F)(F)F)c3)ccc2Cl)CC1 [I-T3-226] | 4.6 | 
24 | CN(C(=O)c1cc(-c2cnn(-c3c(Cl)cc(C(F)(C(F)(F)F)C(F)(F)F)cc3OC(F)(F)F)c2)cnc1Cl)C1CC1 [I-T3-208] | 4.6 | 
25 | CCSc1cc(C(F)(C(F)(F)F)C(F)(F)F)cnc1-n1cc(-c2ccc(Cl)c(C(=O)NC3CC3)c2)cn1 [I-T3-156, 2-Chloro-N-cyclopropyl-5-{1-[3-(ethylsulphanyl)-5-(1,1,1,2,3,3,3-heptafluoropropan-2-yl)pyridin-2-yl]-1H-pyrazol-4-yl}benzamide] | 4.7 | logP^a) ([1]; reversed-phase column (C18)): 4.7
26 | N#CC1(NC(=O)c2cc(-c3cnn(-c4c(F)c(F)c(C(F)(F)F)c(F)c4F)c3)ccc2Cl)CC1 [I-T3-188] | 3.4 | efficacy (Phaedon cochleariae; application rate 500 g/ha): 100%
27 | N#Cc1cc(C(F)(C(F)(F)F)C(F)(F)F)cc(Cl)c1-n1cc(-c2cnc(Cl)c(C(=O)NC3CC3)c2)cn1 [I-T3-205] | 3.5 | 
28 | CC[S+]([O-])c1cc(C(F)(C(F)(F)F)C(F)(F)F)cnc1-n1cc(-c2ccc(Cl)c(C(=O)NC3CC3)c2)cn1 (centres unmarked) [I-T3-157, 2-Chloro-N-cyclopropyl-5-{1-[3-(ethylsulphinyl)-5-(1,1,1,2,3,3,3-heptafluoropropan-2-yl)pyridin-2-yl]-1H-pyrazol-4-yl}benzamide] | 3.8 | logP^a) ([1]; reversed-phase column (C18)): 3.8
29 | NC(=S)C1(NC(=O)c2cc(-c3cnn(-c4c(Cl)cc(C(F)(C(F)(F)F)C(F)(F)F)cc4C(F)(F)F)c3)cnc2Cl)CC1 [I-T3-159] | 3.8 | logP^a) ([1]; reversed-phase column (C18)): 3.8
30 | CCS(=O)(=O)c1cc(C(F)(C(F)(F)F)C(F)(F)F)cc(C)c1-n1cc(-c2ccc(Cl)c(C(=O)NC3CC3)c2)cn1 [I-T3-210] | 3.9 | 
31 | CCOc1cc(C(F)(C(F)(F)F)C(F)(F)F)cc(OCC)c1-n1cc(-c2cnc(Cl)c(C(=O)N(C)C3CC3)c2)cn1 [I-T3-211] | 4.7 | 
32 | N#CC1(NC(=O)c2cc(-c3cnn(-c4c(Cl)cc(C(F)(C(F)(F)F)C(F)(F)F)cc4OC(F)F)c3)ccc2Cl)CC1 [I-T3-215] | 4.1 | 
33 | O=C(NC1CC1)c1cc(-c2cnn(-c3c(I)cc(C(F)(C(F)(F)F)C(F)(F)F)cc3C(F)(F)F)c2)ccc1Cl [I-T3-227] | 4.5 | 
34 | CN(C(=O)c1cc(-c2cnn(-c3c(Cl)cc(C(F)(C(F)(F)F)C(F)(F)F)cc3C#N)c2)cnc1Cl)C1CC1 [I-T3-204] | 3.9 | 
35 | CCS(=O)(=O)c1cc(C(F)(C(F)(F)F)C(F)(F)F)cc(Cl)c1-n1cc(-c2ccc(Cl)c(C(=O)NC3(C#N)CC3)c2)cn1 [I-T3-201] | 4.0 | 
36 | Cc1cc(C(F)(C(F)(F)F)C(F)(F)F)cc(C)c1-n1ccc(-c2ccc(Cl)c(C(=O)NC3(C#N)CC3)c2)c1 [I-T46-1] |  | logP [1, 3]: 4.90
37 | Nc1c(Cl)cc(C(O)(C(F)(F)F)C(F)(F)F)cc1Cl [2-(4-amino-3,5-dichlorphenyl)-1,1,1,3,3,3-hexafluoropropan-2-ol] |  | logP [1]: 3.04
38 | CN(C(=O)c1cc(-c2cnn(-c3c(Cl)cc(C(O)(C(F)(F)F)C(F)(F)F)cc3Cl)c2)cnc1Cl)C1CC1 [I-T3-220] | 3.4 | efficacy (Phaedon cochleariae; application rate 100 g/ha): 100%
39 | N#Cc1cc(C(F)(C(F)(F)F)C(F)(F)F)cc(Cl)c1-n1cc(-c2cnc(Cl)c(C(=O)NC3(C#N)CC3)c2)cn1 [I-T3-207] | 3.5 | 
